Measured values taken from paper PMC10298530, “Synthesis and Anticancer Activity of A-Ring-Modified Derivatives of Dihydrobetulin” (International Journal of Molecular Sciences, 2023).

Legend:
HCT116 = test: MTT cell viability assay, HCT116; format: cell-based, human; conditions: Homo sapiens, HCT-116; Table S1, HCT116; read-out: IC50 (mean ± SD)
Source text: (§1) Blokhin National Medical Research Center of Oncology (the Ministry of Health of the Russian Federation, Moscow).

HEK293 = test: MTT cell viability assay, HEK293; format: cell-based; conditions: Homo sapiens; Table S1, HEK293; read-out: IC50 (mean ± SD)
Source text: as §1

HEpG2 = test: MTT cell viability assay, HEpG2; format: cell-based, human; conditions: Homo sapiens; Table S1, HEpG2; read-out: IC50 (mean ± SD)
Source text: as §1

HBL-100 = test: MTT cell viability assay, HBL-100; format: cell-based, human; conditions: Homo sapiens; Table S1, HBL-100; read-out: IC50 (mean ± SD)
Protocol: (§2) The cells were cultured in a humidified CO2 incubator (model 460-CE; Thermo Fisher Scientific, Waltham, MA, USA) at +37 °C and 5% CO2.
(§3) The percentage of the viable cells was calculated according to the following equation: cell viability (%) = 100 × (mean absorbance in the treatment group/mean absorbance in the control group). The results were expressed pictorially using Prism 6.0 (GraphPad Software, Boston, MA, USA).

PC-3 = test: MTT cell viability assay, PC-3; format: cell-based, human; conditions: Homo sapiens; Table S1, PC-3; read-out: IC50 (mean ± SD)
Source text: as §1

A549 = test: MTT cell viability assay, A549; format: cell-based, human; conditions: Homo sapiens; Table S1, A549; read-out: IC50 (mean ± SD)
Source text: as §1

MCF-7 = test: MTT cell viability assay, MCF-7; format: cell-based, human; conditions: Homo sapiens, MCF7; Table S1, MCF-7; read-out: IC50 (mean ± SD)
Source text: as §1

HBL-100/Dox = test: MTT cell viability assay, HBL-100/Dox; format: cell-based, human; conditions: Homo sapiens, HBL-100; read-out: IC50 (mean ± SD)
Protocol: as §2, §3

MS = test: MTT cell viability assay, MS; format: cell-based, human; conditions: Homo sapiens; Table S1, MS; read-out: IC50 (mean ± SD);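 further: MS is a melanocyte cell line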
Source text: as §1

RD TE32 = test: MTT cell viability assay, RD TE32; format: cell-based, human; conditions: Homo sapiens; Table S1, RD TE32; read-out: IC50 (mean ± SD)
Source text: as §1

Row | Compound | melting point | IC50 (HCT116) | IC50 (HEK293) | IC50 (HEpG2) | IC50 (HBL-100) | IC50 (PC-3) | IC50 (A549) | IC50 (MCF-7) | IC50 (HBL-100/Dox) | IC50 (MS) | IC50 (RD TE32)
1 | C=C1C[C@H](C#N)C[C@@]2(C)C1CC[C@]1(C)C2CCC2C3C(C(C)C)CC[C@]3(C(=O)OC)CC[C@]21C (stereo partly shown) [compound 13, 2-Cyano-3,4-seco-3-nor-2,24-cyclolup-4(23)-en-28-oic acid methyl ester] | 177.7 °C | > 100 µM | > 200 µM | > 100 µM | > 100 µM | > 100 µM | > 100 µM | > 100 µM | > 200 µM | > 100 µM | > 100 µM
2 | COC(=O)[C@]12CCC(C(C)C)C1C1CCC3[C@@]4(C)CC(C#N)=CC(=O)C4CC[C@@]3(C)[C@]1(C)CC2 (stereo partly shown) [compound 15, 2-Cyano-4-oxo-3,4-seco-3,23-dinor-2,24-cyclolup-2(24)-en-28-oic acid methyl ester] | 69.7 °C | > 100 µM | > 100 µM | > 100 µM | > 100 µM | > 100 µM | > 100 µM | > 100 µM | > 100 µM | > 100 µM | > 100 µM
3 | CC(C)C1CC[C@]2(CO)CC[C@]3(C)C(CCC4[C@@]5(C)C[C@@H](C#N)CC(=O)C5CC[C@]43C)C12 (stereo partly shown) [compound 16, 2-Cyano-28-hydroxy-4-oxo-3,4-seco-3,23-dinor-2,24-cyclolupane] | 166.6 °C | > 200 µM | > 100 µM | > 100 µM | > 100 µM | > 100 µM | > 100 µM | > 100 µM | > 200 µM | > 100 µM | > 100 µM
4 | COC(=O)[C@]12CCC(C(C)C)C1C1CCC3[C@@]4(C)C[C@@H](C#N)CC(=O)C4CC[C@@]3(C)[C@]1(C)CC2 (stereo partly shown) [compound 17, 2-Cyano-4-oxo-3,4-seco-3,23-dinor-2,24-cyclolup-28-oic acid methyl ester] | 220.8 °C | > 100 µM | > 100 µM | > 100 µM | > 200 µM | > 100 µM | > 100 µM | > 100 µM | > 200 µM | > 100 µM | > 100 µM
5 | CC(C)C1CC[C@]2(CO)CC[C@]3(C)C(CCC4[C@@]5(C)C[C@@H](C#N)C[C@H](O)C5CC[C@]43C)C12 (stereo partly drawn) [compound 18, 2-Cyano-4β,28-dihydroxy-3,4-seco-3,23-dinor-2,24-cyclolupane] | 205.7 °C | > 200 µM | > 100 µM | > 100 µM | > 100 µM | > 100 µM | > 100 µM | > 100 µM | > 200 µM | > 100 µM | > 200 µM
6 | CC(=O)C1CC[C@]2(C)C(CCC3C4C(C(C)C)CC[C@]4(COC(=O)c4ccccc4)CC[C@]32C)[C@@]1(C)CCC#N (stereo partly shown) [compound 20, 28-Benzoyloxy-2-cyano-4-oxo-3,4-seco-3,23-dinorlupane] | 185.8 °C | > 100 µM | > 100 µM | > 100 µM | > 200 µM | > 100 µM | > 100 µM | > 100 µM | > 200 µM | > 100 µM | > 100 µM
7 | COC(=O)[C@]12CCC(C(C)C)C1C1CCC3[C@@](C)(CCC#N)C(C(C)=O)CC[C@@]3(C)[C@]1(C)CC2 (stereo partly shown) [compound 21, 2-Cyano-4-oxo-3,4-seco-3,23-dinorlupan-28-oic acid methyl ester] | 177.2 °C | > 100 µM | > 100 µM | > 100 µM | > 100 µM | > 100 µM | > 100 µM | 97.5 ± 4.21 µM | > 200 µM | > 100 µM | > 100 µM
8 | CC1=C(C#N)C[C@@]2(C)C1CC[C@]1(C)C2CCC2C3C(C(C)C)CC[C@]3(CO)CC[C@]21C (stereo partly shown) [compound 22, 2-Cyano-28-hydroxy-3,4-seco-3,23-dinor-2,4-cyclolup-2(4)-ene] | 184.2 °C | 74.2 ± 2.56 µM | > 100 µM | > 100 µM | > 100 µM | 36.5 ± 1.31 µM | > 200 µM | 89.3 ± 3.01 µM | > 100 µM | > 100 µM | 84.7 ± 3.68 µM
